Reference: PMC9424906 (Frontiers in Pharmacology, 2022)
≈ marks a conversion by molar mass, not a printed value. Entries after “also recorded” stand apart in the source; their conditions may differ.

What was measured:
[1] = test system: SARS-CoV-2 (2019-nCoV/USA-WAl/2020); assay type: cell-based; details: EpiAirway 3D HAE tissue model
[2] = test system: plateable cryopreserved hepatocytes; assay type: in vitro ADME, mouse, rat, dog, monkey, human
Method: Plateable cryopreserved hepatocytes from male CD-1 mouse (Lot# DYF, 81.2% viability), male SD rat (Lot# PMD, 88.1% viability), male Beagle dog (Lot# YTK, 90.0% viability), male Cynomolgus monkey (Lot# GJV, 88.7% viability), and male human (Lot# PDC, 82.9% viability) were purchased from BioIVT (Baltimore, MD). Following vendor’s instructions, the hepatocyte vials were thawed in a 37°C water bath and cells were suspended in 5 mL of corresponding plating media (antibiotic added, rodent media for mouse and rat, dog media for dog, and primate media for monkey and human). The cells were manually counted using Trypan Blue method and were diluted to target concentration (0.35 million/mL for mouse and 0.7 million/mL for other species) with plating media. Diluted cells (500 µL) were then added to Collagen-I coated 24-well plate, distributed evenly, and incubated for 4 h for attaching. Media was changed 4 h prior to compound addition.
After 24 and 48 h, the reaction was stopped by adding 3x volumes of cold acetonitrile to the reaction mixture. Samples were vortexed and centrifuged to precipitate proteins. The supernatants were transferred to clean tubes and dried under a stream of N2 for ∼20 min at ambient temperature to remove most of organic solvent. The remaining liquid was dried by lyophilization. […]

CNT1 = molecular target: T1, CNT1 (Homo sapiens, UniProt O00337); assay: Nucleoside transporter uptake, CNT1-transfected MDCK cells; assay type: in vitro ADME
T1 construct: expressed in transfected cells; host or cells: MDCK-II
T1 sequence (O00337 1-649): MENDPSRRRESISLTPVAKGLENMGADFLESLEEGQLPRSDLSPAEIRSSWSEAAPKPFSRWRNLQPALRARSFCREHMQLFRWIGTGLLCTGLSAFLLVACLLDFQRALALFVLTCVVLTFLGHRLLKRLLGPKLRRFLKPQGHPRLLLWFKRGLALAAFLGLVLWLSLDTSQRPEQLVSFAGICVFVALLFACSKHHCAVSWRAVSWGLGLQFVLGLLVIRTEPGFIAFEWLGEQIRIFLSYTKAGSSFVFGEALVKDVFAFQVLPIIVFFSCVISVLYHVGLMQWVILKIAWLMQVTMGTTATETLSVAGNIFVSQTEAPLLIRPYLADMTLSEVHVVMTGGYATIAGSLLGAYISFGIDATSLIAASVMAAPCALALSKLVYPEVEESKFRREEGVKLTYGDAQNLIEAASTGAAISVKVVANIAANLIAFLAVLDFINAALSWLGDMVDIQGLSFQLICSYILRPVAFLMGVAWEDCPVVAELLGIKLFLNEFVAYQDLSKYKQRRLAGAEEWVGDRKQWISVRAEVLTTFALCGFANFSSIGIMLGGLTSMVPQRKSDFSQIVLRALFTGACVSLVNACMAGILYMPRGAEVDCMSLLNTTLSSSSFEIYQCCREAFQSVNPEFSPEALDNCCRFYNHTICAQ
Excerpt: (§1) Each condition was run in triplicate.

CNT3 = molecular target: T2, CNT3 (Homo sapiens, UniProt Q9HAS3); assay: Nucleoside transporter uptake, CNT3-transfected MDCK cells; assay type: in vitro ADME
T2 construct: expressed in transfected cells; host or cells: MDCK-II
T2 sequence (Q9HAS3 whole entry): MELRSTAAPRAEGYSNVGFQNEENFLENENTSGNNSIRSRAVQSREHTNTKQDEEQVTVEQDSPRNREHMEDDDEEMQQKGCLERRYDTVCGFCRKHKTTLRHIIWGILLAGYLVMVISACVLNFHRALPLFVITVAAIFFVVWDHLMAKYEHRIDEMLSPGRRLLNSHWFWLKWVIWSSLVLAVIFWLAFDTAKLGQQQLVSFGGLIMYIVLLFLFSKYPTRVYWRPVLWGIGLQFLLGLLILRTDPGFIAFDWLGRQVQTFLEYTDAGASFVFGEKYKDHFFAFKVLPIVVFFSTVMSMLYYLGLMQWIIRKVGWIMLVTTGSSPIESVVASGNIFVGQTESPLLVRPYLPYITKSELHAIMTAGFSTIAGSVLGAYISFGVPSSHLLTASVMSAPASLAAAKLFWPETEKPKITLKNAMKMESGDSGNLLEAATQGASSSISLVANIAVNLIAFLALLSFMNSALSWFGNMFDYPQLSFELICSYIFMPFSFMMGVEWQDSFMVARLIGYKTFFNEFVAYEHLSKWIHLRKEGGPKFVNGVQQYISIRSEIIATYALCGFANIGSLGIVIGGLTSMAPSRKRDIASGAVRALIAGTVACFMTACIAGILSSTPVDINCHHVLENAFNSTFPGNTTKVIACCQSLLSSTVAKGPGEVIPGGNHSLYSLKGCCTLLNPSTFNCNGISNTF
Excerpt: as §1

ENT2 = molecular target: T3, ENT2 (Homo sapiens, UniProt Q14542); assay: Nucleoside transporter uptake, ENT2-transfected MDCK cells; assay type: in vitro ADME
T3 construct: expressed in transfected cells; host or cells: MDCK-II
T3 sequence (Q14542 whole entry): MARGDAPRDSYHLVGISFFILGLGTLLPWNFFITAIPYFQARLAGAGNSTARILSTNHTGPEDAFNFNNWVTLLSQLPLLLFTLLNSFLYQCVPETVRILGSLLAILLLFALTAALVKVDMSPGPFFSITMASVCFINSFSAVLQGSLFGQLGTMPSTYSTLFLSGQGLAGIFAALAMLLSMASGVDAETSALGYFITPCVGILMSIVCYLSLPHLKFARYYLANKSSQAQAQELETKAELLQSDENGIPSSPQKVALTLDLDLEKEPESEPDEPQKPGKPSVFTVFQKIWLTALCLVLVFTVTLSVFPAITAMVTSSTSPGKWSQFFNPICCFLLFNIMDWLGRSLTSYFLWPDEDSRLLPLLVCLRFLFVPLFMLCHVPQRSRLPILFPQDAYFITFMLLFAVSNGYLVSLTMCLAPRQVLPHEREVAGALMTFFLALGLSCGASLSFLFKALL
Excerpt: as §1

[3] = set-up: species or system human
Method: Allometric methods were used to predict human plasma clearance and volume of distribution ([Mahmood and Balian, 1996]; [Sharma and McNeill, 2009]). Human PK prediction was carried out with GastroPlus, version 9.6 (SimulationsPlus, Lancaster, CA)
To predict human exposures after oral administration, human PK parameters were estimated using allometric scaling and human PK profile was simulated using GastroPlus. The allometric scaling was performed as previously described ([Mahmood and Balian, 1996]).

[4] = test system: EpiAirway human tracheobronchial epithelial tissues
physchem = details: for solubility thermodynamic: thermodynamic from solid
MDR1 = assay: in vitro; details: dog, MDCK-MDR1, 5 µM; for Papp A→B at 2 h, 5 µM: MDCK-MDR1, pH 7.4, Papp A to B; for Papp B→A at 2 h, 5 µM: MDCK-MDR1, pH 7.4, Papp B to A
OCT2 = details: cited from earlier work
ENT1 = ENT1 (Homo sapiens, UniProt Q99808); assay: Nucleoside transporter uptake, ENT1-transfected MDCK cells
Sequence of ENT1 (Q99808 whole entry): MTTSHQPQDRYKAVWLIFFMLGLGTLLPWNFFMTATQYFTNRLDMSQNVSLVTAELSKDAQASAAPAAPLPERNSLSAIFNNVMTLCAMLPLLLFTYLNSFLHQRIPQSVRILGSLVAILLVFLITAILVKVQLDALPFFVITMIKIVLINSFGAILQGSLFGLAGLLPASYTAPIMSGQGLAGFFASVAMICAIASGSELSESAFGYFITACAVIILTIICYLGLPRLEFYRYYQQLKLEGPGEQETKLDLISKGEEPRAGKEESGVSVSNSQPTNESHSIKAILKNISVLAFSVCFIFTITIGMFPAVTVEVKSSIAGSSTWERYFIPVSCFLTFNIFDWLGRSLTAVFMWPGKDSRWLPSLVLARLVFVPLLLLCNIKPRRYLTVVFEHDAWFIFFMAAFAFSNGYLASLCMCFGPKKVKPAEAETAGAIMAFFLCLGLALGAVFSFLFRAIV

N#C[C@@]1(c2ccc3c(N)ncnn23)O[C@H](CO)[C@@H](O)[C@H]1O [GS-441524]
Potency on viral titer (TCID50) at 24 h ([1]; 24 h): lower potency than EIDD-2801
Viral titer (TCID50) ([1]; 24 h and 96 h after infection): significantly inhibited the viral infection; also recorded: reduced viral load
Glucuronidation and sulfation metabolites in plateable hepatocytes [2]: detected at trace amount
Phosphorylated metabolites in plateable hepatocytes [2]: no detectable phosphorylated metabolites
Substrate of CNT1 (CNT1): not a substrate; also recorded: unlikely to be a substrate
Transporter uptake rate (CNT1; CNT1, 10 μM, LOQ = 0.222 pmol/min/cm^2): BLQ
Difference in uptake compared to control cells (CNT1; CNT1-transfected cells): less than 2 fold
Substrate of CNT3 (CNT3): substrate
Inhibition of uptake by reference inhibitor (CNT3; CNT3-transfected cells, reference inhibitor adenosine, 30 µM GS-441524): 98.9%
Substrate of ENT2 (ENT2): substrate
Inhibition of uptake by reference inhibitor (ENT2; ENT2-transfected cells, 100 µM adenosine): did not inhibit; also recorded: no inhibition was observed
Calculated human CLp as share of human hepatic blood flow ([3]; allometric scaling): approximately 10%
Predicted human CLp ([3]; allometric scaling from mouse, rat, monkey, dog): 2.7 mL/min/kg
Predicted human Vdss ([3]; human): 0.6 L/kg
Cytotoxicity [4]: did not exhibit any cytotoxicity
solubility thermodynamic (physchem; pH 1.6, simulated gastric fluid): > 1000 µg/mL
solubility thermodynamic (physchem; pH 2, aqueous buffer): > 1000 µg/mL
solubility (physchem; pH 5): 35 to 52 µg/mL (≈ 120 to 179 µM)
solubility thermodynamic (physchem; pH 5, aqueous buffer): 52 µg/mL (≈ 179 µM)
solubility thermodynamic (physchem; pH 5.8, fessif): 52 µg/mL (≈ 179 µM)
solubility thermodynamic (physchem; pH 6.5, fassif): 35 µg/mL (≈ 120 µM)
solubility thermodynamic (physchem; pH 7.4, aqueous buffer): 47 µg/mL (≈ 161 µM)
Papp A→B at 2 h, 5 µM (MDR1; 1 µM Valspodar): 0.484 ×10⁻⁶ cm/s
Papp A→B at 2 h, 5 µM (MDR1; no inhibitor): 0.158 ×10⁻⁶ cm/s
Papp B→A at 2 h, 5 µM (MDR1; 1 µM Valspodar): 0.468 ×10⁻⁶ cm/s
Papp B→A at 2 h, 5 µM (MDR1; no inhibitor): 0.521 ×10⁻⁶ cm/s
Substrate of OCT2 (OCT2): not a substrate
Inhibition of uptake by reference inhibitor (ENT1; ENT1-transfected cells, reference inhibitor NBMPR, 30 µM GS-441524): 92.3%
Substrate of ENT1 (ENT1; MDCK): substrate
